Assay results: ChEMBL document CHEMBL3352807, “Design, synthesis and anti-mycobacterial activity of 1,2,3,5-tetrasubstituted pyrrolyl-N-acetic acid derivatives” (Eur J Med Chem, 2014)
In brackets after ≈: the same amount, converted by molar mass.

Tests used:
Pseudomonas aeruginosa = experiment: Antibacterial activity against Pseudomonas aeruginosa; format: functional
[1] = tested on: Mycobacterium tuberculosis; experiment: Antimycobacterial activity against Mycobacterium tuberculosis H37Rv ATCC 27294 after 28 days by agar dilution method; format: functional; settings: H37Rv ATCC 27294, 672 h
HEK-293T = experiment: Cytotoxicity against HEK293T cells after 72 hrs by MTT assay; format: cell-based; settings: Homo sapiens
[2] = Cytotoxicity against HEK293T cells at 50 uM after 72 hrs by MTT assay; format: cell-based, HEK-293T; settings: human
[3] = Selectivity index, ratio of IC50 for HEK293T cells to MIC for Mycobacterium tuberculosis H37Rv ATCC 27294; format: toxicity, cell-based, HEK-293T; settings: human, read-out: Selectivity Index
[4] = tested on: Mycolicibacterium smegmatis; experiment: Antimycobacterial activity against Mycobacterium smegmatis assessed as growth inhibition after 32 hrs by spectrophotometry; format: functional

Compound: O=C(O)Cn1c(-c2ccccc2)cc(-c2ccccc2)c1-c1ccc(Cl)cc1
- MIC (Pseudomonas aeruginosa): 388 µM (≈ 150 µg/mL)
- MIC [1]: 64.6 µM (≈ 25.1 µg/mL)
- IC50 (HEK-293T): < 50 µM
- inhibition at 72 h, 50 µM [2]: 37.4%
- selectivity ratio [3]: 1.55

Compound: CC1(C)S[C@@H]2[C@H](NC(=O)Cc3ccccc3)C(=O)N2[C@H]1C(=O)O [PENICILLIN G]
- MIC (Pseudomonas aeruginosa): 37.4 µM (≈ 12.5 µg/mL)

Compound: O=C(Cn1c(-c2ccccc2)cc(-c2cccc3ccccc23)c1-c1ccco1)Nc1nc2ccccc2s1
- MIC (Pseudomonas aeruginosa): 286 µM (≈ 150 µg/mL)
- MIC [1]: 2.97 µM (≈ 1.56 µg/mL)
- IC50 (HEK-293T): < 50 µM
- GI50 [4]: 61.4 µM
- inhibition at 72 h, 50 µM [2]: 68.8%
- selectivity ratio [3]: 16.8

Compound: CCc1nnc(NC(=O)Cn2c(-c3ccc4ccccc4c3)cc(-c3ccccc3)c2-c2ccco2)s1
- MIC (Pseudomonas aeruginosa): 298 µM (≈ 150 µg/mL)
- MIC [1]: 24.8 µM (≈ 12.5 µg/mL)
- IC50 (HEK-293T): < 50 µM
- GI50 [4]: 73.9 µM
- inhibition at 72 h, 50 µM [2]: 83.6%
- selectivity ratio [3]: 2.02

Compound: CO[C@H]1/C=C/O[C@@]2(C)Oc3c(C)c(O)c4c(O)c(c(/C=N/N5CCN(C)CC5)c(O)c4c3C2=O)NC(=O)/C(C)=C\C=C\[C@H](C)[C@H](O)[C@@H](C)[C@@H](O)[C@@H](C)[C@H](OC(C)=O)[C@@H]1C [RIFAMPIN]
- MIC [1]: 0.29 µM (≈ 0.239 µg/mL)
- GI50 [4]: 1.22 µM

Compound: CCc1nnc(NC(=O)Cn2c(-c3ccccc3)cc(-c3cccc4ccccc34)c2-c2ccco2)s1
- MIC (Pseudomonas aeruginosa): 298 µM (≈ 150 µg/mL)
- MIC [1]: 3.1 µM (≈ 1.56 µg/mL)
- IC50 (HEK-293T): < 50 µM
- GI50 [4]: 66.8 µM
- inhibition at 72 h, 50 µM [2]: 59.7%
- selectivity ratio [3]: 16.1

Compound: CC[C@@H](CO)NCCN[C@@H](CC)CO [ETHAMBUTOL]
- MIC [1]: 27.5 µM (≈ 5.62 µg/mL)

Compound: O=C(O)Cn1c(-c2cccc3ccccc23)cc(-c2ccccc2)c1-c1ccco1
- MIC (Pseudomonas aeruginosa): 47.7 µM (≈ 18.8 µg/mL)
- MIC [1]: 31.8 µM (≈ 12.5 µg/mL)
- IC50 (HEK-293T): < 50 µM
- inhibition at 72 h, 50 µM [2]: 79.5%
- selectivity ratio [3]: 1.57

Compound: O=C(O)Cn1c(-c2ccccc2)cc(-c2ccccc2)c1-c1ccc(Br)cc1
- MIC (Pseudomonas aeruginosa): 348 µM (≈ 150 µg/mL)
- MIC [1]: 32.3 µM (≈ 14 µg/mL)

Compound: CN[C@@H]1[C@H](O[C@H]2[C@H](O[C@H]3[C@H](O)[C@@H](O)[C@H](N=C(N)N)[C@@H](O)[C@@H]3N=C(N)N)O[C@@H](C)[C@]2(O)C=O)O[C@@H](CO)[C@H](O)[C@H]1O [STREPTOMYCIN]
- MIC (Pseudomonas aeruginosa): 2.68 µM (≈ 1.56 µg/mL)

Compound: O=C(Cn1c(-c2ccccc2)cc(-c2ccccc2)c1-c1ccc(Br)cc1)Nc1nc2ccccc2s1
- MIC (Pseudomonas aeruginosa): 266 µM (≈ 150 µg/mL)
- MIC [1]: 11.1 µM (≈ 6.25 µg/mL)
- IC50 (HEK-293T): < 50 µM
- GI50 [4]: 48.3 µM
- inhibition at 72 h, 50 µM [2]: 86.7%
- selectivity ratio [3]: 4.51

Compound: CCc1nnc(NC(=O)Cn2c(-c3ccccc3)cc(-c3ccccc3)c2-c2ccco2)s1
- MIC (Pseudomonas aeruginosa): 331 µM (≈ 151 µg/mL)
- MIC [1]: 27.6 µM (≈ 12.5 µg/mL)
- IC50 (HEK-293T): < 50 µM
- GI50 [4]: 23.3 µM
- inhibition at 72 h, 50 µM [2]: 81%
- selectivity ratio [3]: 1.81

Compound: O=C(O)Cn1c(-c2ccccc2)cc(-c2ccccc2)c1-c1ccccc1
- MIC (Pseudomonas aeruginosa): 47.7 µM (≈ 16.9 µg/mL)
- MIC [1]: 34.1 µM (≈ 12 µg/mL)
- IC50 (HEK-293T): < 50 µM
- inhibition at 72 h, 50 µM [2]: 97%
- selectivity ratio [3]: 1.47

Compound: O=C(Cn1c(-c2ccccc2)cc(-c2ccccc2)c1-c1ccco1)Nc1nc2ccccc2s1
- MIC (Pseudomonas aeruginosa): 316 µM (≈ 150 µg/mL)
- MIC [1]: 13.2 µM (≈ 6.26 µg/mL)
- IC50 (HEK-293T): < 50 µM
- GI50 [4]: 44.6 µM
- inhibition at 72 h, 50 µM [2]: 89.8%
- selectivity ratio [3]: 3.8

Compound: CC(C)C(C(=O)O)n1c(-c2ccccc2)cc(-c2ccco2)c1-c1ccco1 (stereo not given)
- MIC (Pseudomonas aeruginosa): 400 µM (≈ 150 µg/mL)
- MIC [1]: 66.7 µM (≈ 25 µg/mL)

Compound: O=C(Cn1c(-c2ccc3ccccc3c2)cc(-c2ccccc2)c1-c1ccco1)Nc1nc2ccccc2s1
- MIC (Pseudomonas aeruginosa): 286 µM (≈ 150 µg/mL)
- MIC [1]: 2.97 µM (≈ 1.56 µg/mL)
- IC50 (HEK-293T): < 50 µM
- inhibition at 72 h, 50 µM [2]: 38.3%
- selectivity ratio [3]: > 16.8

Compound: CCc1nnc(NC(=O)Cn2c(-c3ccccc3)cc(-c3ccccc3)c2-c2ccc(Br)cc2)s1
- MIC (Pseudomonas aeruginosa): 277 µM (≈ 150 µg/mL)
- MIC [1]: 46.1 µM (≈ 25.1 µg/mL)
- GI50 [4]: 30.6 µM

Compound: O=C(Cn1c(-c2ccccc2)cc(-c2ccccc2)c1-c1ccccc1)Nc1ccccn1
- MIC (Pseudomonas aeruginosa): 175 µM (≈ 75.1 µg/mL)
- MIC [1]: 7.28 µM (≈ 3.13 µg/mL)
- IC50 (HEK-293T): < 50 µM
- GI50 [4]: 26.7 µM
- inhibition at 72 h, 50 µM [2]: 62.9%
- selectivity ratio [3]: 6.86

Compound: CC(C)C(C(=O)O)n1c(-c2ccccc2)cc(-c2ccccc2)c1-c1ccco1 (stereo not given)
- MIC (Pseudomonas aeruginosa): 97.4 µM (≈ 37.5 µg/mL)
- MIC [1]: 130 µM (≈ 50.1 µg/mL)

Compound: O=C(Cn1c(-c2ccccc2)cc(-c2ccco2)c1-c1ccco1)Nc1nc2ccccc2s1
- MIC (Pseudomonas aeruginosa): 354 µM (≈ 165 µg/mL)
- MIC [1]: 29.5 µM (≈ 13.7 µg/mL)
- IC50 (HEK-293T): < 50 µM
- GI50 [4]: 14 µM
- inhibition at 72 h, 50 µM [2]: 65.1%
- selectivity ratio [3]: 1.7

Compound: O=C(O)Cn1c(-c2ccccc2)cc(-c2cccc3ccccc23)c1-c1ccco1
- MIC (Pseudomonas aeruginosa): 13.3 µM (≈ 5.22 µg/mL)
- MIC [1]: 7.95 µM (≈ 3.13 µg/mL)
- IC50 (HEK-293T): < 50 µM
- inhibition at 72 h, 50 µM [2]: 32%
- selectivity ratio [3]: > 6.29

Compound: CCc1nnc(NC(=O)Cn2c(-c3ccccc3)cc(-c3ccco3)c2-c2ccco2)s1
- MIC (Pseudomonas aeruginosa): 338 µM (≈ 150 µg/mL)
- MIC [1]: 14.1 µM (≈ 6.26 µg/mL)
- IC50 (HEK-293T): < 50 µM
- GI50 [4]: 15.2 µM
- inhibition at 72 h, 50 µM [2]: 90.2%
- selectivity ratio [3]: 3.55

Compound: CCc1nnc(NC(=O)Cn2c(-c3ccccc3)cc(-c3ccccc3)c2-c2ccccc2)s1
- MIC (Pseudomonas aeruginosa): 323 µM (≈ 150 µg/mL)
- MIC [1]: 13.5 µM (≈ 6.26 µg/mL)
- IC50 (HEK-293T): < 50 µM
- GI50 [4]: 20.4 µM
- inhibition at 72 h, 50 µM [2]: 49.3%
- selectivity ratio [3]: 3.71

Compound: O=C(Cn1c(-c2ccccc2)cc(-c2ccccc2)c1-c1ccco1)NCc1ccccc1
- MIC (Pseudomonas aeruginosa): 347 µM (≈ 150 µg/mL)
- MIC [1]: 7.23 µM (≈ 3.13 µg/mL)
- IC50 (HEK-293T): < 50 µM
- GI50 [4]: 52.4 µM
- inhibition at 72 h, 50 µM [2]: 72.4%
- selectivity ratio [3]: 6.91

Compound: O=C(O)Cn1c(-c2ccccc2)cc(-c2ccco2)c1-c1ccco1
- MIC (Pseudomonas aeruginosa): 113 µM (≈ 37.5 µg/mL)
- MIC [1]: 75.1 µM (≈ 25 µg/mL)

Compound: O=C(Cn1c(-c2ccc3ccccc3c2)cc(-c2ccccc2)c1-c1ccco1)NCc1ccccc1
- MIC (Pseudomonas aeruginosa): 311 µM (≈ 150 µg/mL)
- MIC [1]: 51.9 µM (≈ 25 µg/mL)

Compound: CC(C)CC(C(=O)O)n1c(-c2ccccc2)cc(-c2ccccc2)c1-c1ccco1 (stereo not given)
- MIC (Pseudomonas aeruginosa): 376 µM (≈ 150 µg/mL)
- MIC [1]: 7.83 µM (≈ 3.13 µg/mL)
- IC50 (HEK-293T): < 50 µM
- inhibition at 72 h, 50 µM [2]: 82.4%
- selectivity ratio [3]: 6.38

Compound: O=C(Cn1c(-c2ccccc2)cc(-c2ccccc2)c1-c1ccccc1)Nc1nc2ccccc2s1
- MIC (Pseudomonas aeruginosa): 309 µM (≈ 150 µg/mL)
- MIC [1]: 6.44 µM (≈ 3.13 µg/mL)
- IC50 (HEK-293T): < 50 µM
- GI50 [4]: 28.9 µM
- inhibition at 72 h, 50 µM [2]: 55%
- selectivity ratio [3]: 0.76

Compound: O=C(Cn1c(-c2ccccc2)cc(-c2ccccc2)c1-c1ccco1)NCCc1c[nH]c2ccccc12
- MIC (Pseudomonas aeruginosa): 77.3 µM (≈ 37.5 µg/mL)
- MIC [1]: 6.44 µM (≈ 3.13 µg/mL)
- IC50 (HEK-293T): < 50 µM
- GI50 [4]: 26.8 µM
- inhibition at 72 h, 50 µM [2]: 62.5%
- selectivity ratio [3]: 7.76

Compound: O=C(Cn1c(-c2ccccc2)cc(-c2ccccc2)c1-c1ccco1)Nc1ccccn1
- MIC (Pseudomonas aeruginosa): 358 µM (≈ 150 µg/mL)
- MIC [1]: 29.8 µM (≈ 12.5 µg/mL)
- IC50 (HEK-293T): < 50 µM
- GI50 [4]: 24.8 µM
- inhibition at 72 h, 50 µM [2]: 69.3%
- selectivity ratio [3]: 1.68

Compound: O=C(O)Cn1c(-c2ccccc2)cc(-c2ccccc2)c1-c1ccco1
- MIC (Pseudomonas aeruginosa): 54.7 µM (≈ 18.8 µg/mL)
- MIC [1]: 18.2 µM (≈ 6.26 µg/mL)
- IC50 (HEK-293T): < 50 µM
- inhibition at 72 h, 50 µM [2]: 114%
- selectivity ratio [3]: 2.74

Compound: NNC(=O)c1ccncc1 [ISONIAZID]
- MIC [1]: 5.25 µM (≈ 0.72 µg/mL)
- GI50 [4]: 41.6 µM

Compound: O=C(Cn1c(-c2ccccc2)cc(-c2ccccc2)c1-c1ccc(Br)cc1)Nc1ccccn1
- MIC (Pseudomonas aeruginosa): 295 µM (≈ 150 µg/mL)
- MIC [1]: 6.15 µM (≈ 3.13 µg/mL)
- IC50 (HEK-293T): < 50 µM
- GI50 [4]: 45.9 µM
- inhibition at 72 h, 50 µM [2]: 75%
- selectivity ratio [3]: 8.13

Compound: Cc1ccc(-c2c(-c3ccccc3)cc(-c3ccccc3)n2CC(=O)O)cc1
- MIC (Pseudomonas aeruginosa): 409 µM (≈ 150 µg/mL)
- MIC [1]: 58 µM (≈ 21.3 µg/mL)
- IC50 (HEK-293T): < 50 µM
- inhibition at 72 h, 50 µM [2]: 78.2%
- selectivity ratio [3]: 0.86
